Literature values as cited in patent publication US20040019012A1, “Ophthalmic antibiotic drug formulations containing a cyclodextrin compound and cetyl pyridinium chloride” (priority 2002, published 2004).

Tests used:
[1] = tested on: gram-positive organisms; conditions: Staphylococcus, Streptococcus, Enterococcus, Bacillus, Corynebacterium, Chlamydia, Neisseria
[2] = tested on: infective gram-positive bacteria; conditions: minimum inhibitory concentration for 90% of the target organisms

## CC(=O)NC[C@H]1CN(c2ccc(N3CCOCC3)c(F)c2)C(=O)O1 [linezolid, (S)-N-[[3-[3-fluoro-4-(4-morpholinyl)phenyl]-2-oxo-5-oxazolidinyl]methyl]acetamide]
[1]
  antibacterial activity against gram-positive organisms: strong antibacterial activity
other
  practical limit of concentration in aqueous solution: about 2 mg/ml
[2]
  MIC90: about 4 μg/ml
